# In publication PMC8151276, “An Integrated Approach toward NanoBRET Tracers for Analysis of GPCR Ligand Engagement” (Molecules, 2021):
# Values joined by “and” are separate entries in the source; they are usually repeats but may differ in a detail not shown here. Identical values can stand only once. Like-named read-outs stand apart in the source and are kept apart here.
# Assays:
# Assay type in all cases: binding
# CHRM1 = target: T1, CHRM1 (Homo sapiens, UniProt P11229); test: NanoBRET screen HiBiT-CHRM1 in HEK293
# T1 construct: purchased Promega (in-house HiBiT-GPCR construct library, NanoBRET)
# T1 sequence (P11229 1-460): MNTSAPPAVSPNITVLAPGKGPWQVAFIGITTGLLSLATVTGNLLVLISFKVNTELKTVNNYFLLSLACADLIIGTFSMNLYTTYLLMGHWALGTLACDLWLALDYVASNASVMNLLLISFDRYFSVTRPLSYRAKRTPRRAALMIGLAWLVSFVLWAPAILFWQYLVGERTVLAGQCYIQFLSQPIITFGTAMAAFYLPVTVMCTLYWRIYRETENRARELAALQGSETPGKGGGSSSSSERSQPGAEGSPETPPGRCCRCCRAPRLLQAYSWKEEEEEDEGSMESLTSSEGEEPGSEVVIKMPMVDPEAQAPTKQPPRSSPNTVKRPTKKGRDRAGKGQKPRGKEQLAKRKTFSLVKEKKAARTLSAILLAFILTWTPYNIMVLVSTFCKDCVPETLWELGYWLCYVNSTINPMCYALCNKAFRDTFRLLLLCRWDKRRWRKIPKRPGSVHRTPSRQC
# CHRM2 = target: T2, CHRM2 (Homo sapiens, UniProt P08172); test: NanoBRET screen HiBiT-CHRM2 in HEK293
# T2 construct: purchased Promega (in-house HiBiT-GPCR construct library, NanoBRET)
# T2 sequence (P08172 1-466): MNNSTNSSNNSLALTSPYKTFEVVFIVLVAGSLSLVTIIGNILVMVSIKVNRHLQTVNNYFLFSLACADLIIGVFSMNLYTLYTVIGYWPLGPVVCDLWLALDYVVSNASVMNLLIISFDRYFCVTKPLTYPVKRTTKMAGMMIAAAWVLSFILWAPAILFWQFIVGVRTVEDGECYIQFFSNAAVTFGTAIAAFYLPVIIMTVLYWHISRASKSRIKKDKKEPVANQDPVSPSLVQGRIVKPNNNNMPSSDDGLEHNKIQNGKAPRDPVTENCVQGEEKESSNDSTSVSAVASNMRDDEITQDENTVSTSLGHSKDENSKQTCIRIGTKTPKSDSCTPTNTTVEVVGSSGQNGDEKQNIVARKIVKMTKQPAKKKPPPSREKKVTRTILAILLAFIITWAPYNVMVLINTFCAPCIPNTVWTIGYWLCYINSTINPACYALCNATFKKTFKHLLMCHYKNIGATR
# Experimental: Each tracer candidate was screened across the entire library of HiBiT-GPCR constructs using NanoBRET as the detection modality. As depicted in Figure 4A, the specificity of interactions was evaluated through decrease in BRET due to competitive displacement of a bound tracer by excess parental compound. Each tracer was analyzed for binding to each HiBiT-GPCR fusion in the absence and in the presence of competing parental compound. Briefly, HEK293 cells were transfected with HiBiT-GPCR constructs diluted into promoterless DNA to reduce expression and maximize translocation to the cell surface. Each tracer candidate was then screened at concentrations of 1 μM and 0.1 μM across cells expressing these fusions. Cells were treated for 1.5 h with tracer either alone or in the presence of 20 μM competing parental compound (i.e., control). BRET was measured upon addition of purified LgBiT and subsequent complementation with HiBiT genetically fused to a GPCR. The specificity of interactions was assessed through a decrease in BRET signal due to competitive displacement of the bound tracer. To further gauge the robustness of these interactions, the fold response over the control (i.e., BRETtracer/BRETcontrol) was calculated. We chose a 1.5-fold response, which translates to ≥7-fold signal over noise as the minimal threshold required to score an interaction as positive.
# HiBiT-GPCR DNA constructs were diluted in 10 mM Tris pH 8 to a final concentration of 0.01 μg/μL, arrayed in 96-well plates and stored at −20 °C. For transfection, HEK293 cells were suspended in Opti-MEM (without phenol red) supplemented with 2% fetal bovine serum (Seradigm) and 100 units/mL penicillin–streptomycin (Gibco) at a final concentration of 220,000 cells/mL and dispensed into white 96-well plates at 90 μL/well. Subsequent transfections and screens were carried using an Agilent Bravo Automated Liquid Handling Platform. First, the 96-well HiBiT DNA arrays were diluted 25-fold in Opti-MEM (without serum or phenol red) to a final concentration of 0.0004 μg/μL and 20 μL of the diluted DNAs were transferred into new 96-well plates. Next, promoterless carrier DNA (1 μg/μL) was diluted 25-fold (0.04 μg/μL) and then dispensed into the diluted arrays at 20 μL/well. Following brief mixing, Viafect transfection reagent (Promega) diluted 16-fold into Opti-MEM was dispensed into the plates at 40 μL/well. After mixing by pipetting, plates were incubated for 10 min on the pipetting station deck. The DNA-transfection reagent complexes were then added to plates containing cells. To facilitate the screen, 10 μL of DNA-transfection reagent complexes were added in duplicates to the top 4 and bottom 4 rows, resulting in two identical 48-well arrays per plate. Plates with transfected cells were incubated for 18–20 h at 37 °C/5% CO2. A screen of each tracer across the entire library using two different concentrations requires duplicate plates of transfected cells. Depending on the number of tracers being screened, transfections can be scaled up using the same ratios. The next day, for each tracer, four 20× screening solutions in tracer dilution buffer (Promega) were prepared: two duplicates at final concentration of 20 μM and two duplicates at a final concentration of 2 μM. […] The four resulting solutions were diluted 4-fold in Opti-MEM without serum or phenol red to generate 5× solutions (5 µM and 0.5 µM tracer +/− 100 μM competing compound). To screen the library, a BioTek MultiFlo FX liquid dispenser was used to dispense 22.5 µL of tracer solution to the top 4 rows and 22.5 µL tracer + competing compound solution to the 4 bottom rows. Plates were briefly mixed on an orbital shaker and incubated for 1.5 h at room temperature. […] Plates were briefly mixed on an orbital shaker and incubated for 15 min to allow complementation.
# HRH1 = target: T3, HRH1 (Homo sapiens, UniProt P35367); test: NanoBRET screen HiBiT-HRH1 in HEK293
# T3 construct: purchased Promega (in-house HiBiT-GPCR construct library, NanoBRET)
# CHRM3 = target: T4, CHRM3 (Homo sapiens, UniProt P20309); test: NanoBRET screen HiBiT-CHRM3 in HEK293
# T4 construct: purchased Promega (in-house HiBiT-GPCR construct library, NanoBRET)
# T4 sequence (P20309 whole entry): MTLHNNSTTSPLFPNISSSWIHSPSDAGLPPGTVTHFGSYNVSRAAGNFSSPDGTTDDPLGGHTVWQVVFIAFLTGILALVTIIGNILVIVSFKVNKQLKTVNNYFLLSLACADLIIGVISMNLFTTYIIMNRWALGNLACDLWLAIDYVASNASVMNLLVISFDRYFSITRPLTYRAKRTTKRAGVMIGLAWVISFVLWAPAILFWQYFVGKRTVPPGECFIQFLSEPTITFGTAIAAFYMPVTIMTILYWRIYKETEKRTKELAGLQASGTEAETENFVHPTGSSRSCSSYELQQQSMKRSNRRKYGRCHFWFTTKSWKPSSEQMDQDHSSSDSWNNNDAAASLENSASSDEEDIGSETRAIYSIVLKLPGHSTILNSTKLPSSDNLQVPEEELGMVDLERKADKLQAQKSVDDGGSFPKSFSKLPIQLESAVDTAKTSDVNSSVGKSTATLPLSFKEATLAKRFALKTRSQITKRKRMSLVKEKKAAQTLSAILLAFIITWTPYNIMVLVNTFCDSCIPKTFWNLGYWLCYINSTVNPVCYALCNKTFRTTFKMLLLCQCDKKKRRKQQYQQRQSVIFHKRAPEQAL
# T3 sequence (P35367 whole entry): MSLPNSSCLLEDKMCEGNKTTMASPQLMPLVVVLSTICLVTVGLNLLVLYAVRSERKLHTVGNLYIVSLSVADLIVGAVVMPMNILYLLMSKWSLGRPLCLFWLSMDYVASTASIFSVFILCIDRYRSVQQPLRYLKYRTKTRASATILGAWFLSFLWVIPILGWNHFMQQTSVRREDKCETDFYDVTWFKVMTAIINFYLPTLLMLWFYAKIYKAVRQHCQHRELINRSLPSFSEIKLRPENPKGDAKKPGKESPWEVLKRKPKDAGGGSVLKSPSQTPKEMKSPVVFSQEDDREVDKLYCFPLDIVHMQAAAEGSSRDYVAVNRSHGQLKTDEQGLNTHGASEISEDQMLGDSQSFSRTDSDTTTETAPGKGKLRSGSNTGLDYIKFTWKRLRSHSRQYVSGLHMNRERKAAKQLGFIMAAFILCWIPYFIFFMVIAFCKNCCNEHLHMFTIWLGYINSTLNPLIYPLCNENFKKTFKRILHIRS
SMILES,"NanoBRET Fold Response (CHRM1; CHRM1, tracer 0.1μM)","NanoBRET Fold Response (CHRM1; CHRM1, tracer 1μM)","NanoBRET Fold Response (CHRM2; CHRM2, tracer 0.1μM)","NanoBRET Fold Response (CHRM2; CHRM2, tracer 1μM)","NanoBRET Fold Response (HRH1; HRH1, tracer 0.1μM)","NanoBRET Fold Response (HRH1; HRH1, tracer 1μM)","NanoBRET Fold Response (CHRM3; CHRM3, tracer 0.1μM)","NanoBRET Fold Response (CHRM3; CHRM3, tracer 1μM)",further results
O=C(CCOCCOCCOCCOCCNC(=O)CCc1ccc2n1[B-](F)(F)[N+]1=C(c3ccc[nH]3)C=CC1=C2)NCCCN1CCN(C2=Nc3cc(Cl)ccc3Nc3ccccc32)CC1 [Clozapine-a-2-NB590],,,,,,,,,"NanoBRET Fold Response (CHRM1; CHRM1, 0.1μM tracer): 1.09; NanoBRET Fold Response (CHRM1; CHRM1, 1μM tracer): 0.98; NanoBRET Fold Response (CHRM2; CHRM2, 0.1μM tracer): 1.50; NanoBRET Fold Response (CHRM2; CHRM2, 1μM tracer): 1.49; NanoBRET Fold Response (HRH1; HRH1, 0.1μM tracer): 4.67; NanoBRET Fold Response (HRH1; HRH1, 1μM tracer): 4.78; NanoBRET Fold Response (CHRM3; CHRM3, 0.1μM tracer): 1.06; NanoBRET Fold Response (CHRM3; CHRM3, 1μM tracer): 0.92"
CCCn1c(=O)c2[nH]c(-c3ccc(OCC(=O)NCCNC(=O)CCOCCNC(=O)c4ccc(CNC(=O)CCc5ccc6n5[B-](F)(F)[N+]5=C(c7ccc[nH]7)C=CC5=C6)cc4)cc3)nc2n(CCC)c1=O [XAC-3-NB590],1.11,0.99,1.28,2.12,0.95,1.24,0.90,1.29,
N#CN=C(NCCCOc1cccc(CN2CCCCC2)c1)NCCNC(=O)CCOCCOCCOCCOCCNC(=O)CCc1ccc2n1[B-](F)(F)[N+]1=C(c3ccc[nH]3)C=CC1=C2 [Aminopotentidine-2-NB590],0.98,1.35,1.66,1.68,0.91,1.08,0.99,1.04,
COc1ccc2c(n1)c(CCNC(C)=O)cn2CCNC(=O)CCc1ccc2n1[B-](F)(F)[N+]1=C(c3ccc[nH]3)C=CC1=C2 [Azamelatonin-1-NB590],,,,,,,,,NanoBRET Fold Response (CHRM1; 0.1μM tracer): 1.17; NanoBRET Fold Response (CHRM1; 1μM tracer): 0.93; NanoBRET Fold Response (CHRM2; 0.1μM tracer): 0.80; NanoBRET Fold Response (CHRM2; 1μM tracer): 1.35; NanoBRET Fold Response (HRH1; 0.1μM tracer): 1.14; NanoBRET Fold Response (HRH1; 1μM tracer): 1.14; NanoBRET Fold Response (CHRM3; 0.1μM tracer): 1.05; NanoBRET Fold Response (CHRM3; 1μM tracer): 0.96
CC(C)N(CC[C@H](c1ccccc1)c1cc(CCNC(=O)c2ccc(CNC(=O)CCc3ccc4n3[B-](F)(F)[N+]3=C(c5ccc[nH]5)C=CC3=C4)cc2)ccc1O)C(C)C [Tolterodine-BZ-NB590],,,3.84,2.14,0.99,1.10,1.18,1.25,NanoBRET Fold Response (CHRM1): 2.14 and 2.47
